One block for each compound: values may come before it. The source made the active and inactive calls.
Columns and labels:
[1] = target: Paired box protein Pax-8 (Homo sapiens, UniProt Q06710); experiment: PAX8 transcriptional activity inhibition in RMG-I – RMG-I cells, luciferase, cherry-pick, dose response (AID 687027); type: functional, cell-based;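 also: luciferase reporter driven by Pax8 target thyroperoxidase promoter measured by SteadyGlo luminescence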
[2] = general cell-killing toxicity readout – plate reader, dry powder samples, cytotoxicity control for PAX8 inhibitor project, dose response (AID 743021); type: functional, cell-based
[3] = target: Luciferin 4-monooxygenase (Photinus pyralis, UniProt P08659); experiment: inhibition of purified Photinus pyralis luciferase – biochemical, luminescence, dose response (AID 1891)
Sequence of Luciferin 4-monooxygenase (P08659 whole entry): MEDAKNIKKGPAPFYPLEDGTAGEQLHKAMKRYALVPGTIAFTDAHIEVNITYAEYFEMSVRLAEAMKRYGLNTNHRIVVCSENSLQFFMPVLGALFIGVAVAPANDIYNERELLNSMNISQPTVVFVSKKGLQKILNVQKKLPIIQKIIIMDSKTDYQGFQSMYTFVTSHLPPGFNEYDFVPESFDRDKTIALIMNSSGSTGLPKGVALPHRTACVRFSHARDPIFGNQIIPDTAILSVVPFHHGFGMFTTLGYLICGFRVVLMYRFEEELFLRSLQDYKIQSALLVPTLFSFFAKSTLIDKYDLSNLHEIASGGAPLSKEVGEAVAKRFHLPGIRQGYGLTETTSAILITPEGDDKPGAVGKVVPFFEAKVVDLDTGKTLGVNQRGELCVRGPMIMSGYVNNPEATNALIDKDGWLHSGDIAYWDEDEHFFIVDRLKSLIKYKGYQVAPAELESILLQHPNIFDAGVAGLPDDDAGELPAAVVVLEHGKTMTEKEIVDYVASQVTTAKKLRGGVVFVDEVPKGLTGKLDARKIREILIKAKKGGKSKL

[4] = Luminescence Cell-Based Dose Confirmation HTS to Identify Inhibitors of Platelet Dense Granule Release. [Related pubchem assays: 1663 (Primary HTS), 1678 (Summary of Project)]; type: functional
[5] = target: T1, Corticotropin-releasing factor receptor 2/Corticotropin-releasing factor-binding protein (Homo sapiens, UniProt P24387+Q13324); experiment: activators of CRF receptor 2 with binding protein – uHTS hits, confirmation (AID 602473); type: functional; details: read-out: EC50_Mean
T1 sequence (Q13324 whole entry): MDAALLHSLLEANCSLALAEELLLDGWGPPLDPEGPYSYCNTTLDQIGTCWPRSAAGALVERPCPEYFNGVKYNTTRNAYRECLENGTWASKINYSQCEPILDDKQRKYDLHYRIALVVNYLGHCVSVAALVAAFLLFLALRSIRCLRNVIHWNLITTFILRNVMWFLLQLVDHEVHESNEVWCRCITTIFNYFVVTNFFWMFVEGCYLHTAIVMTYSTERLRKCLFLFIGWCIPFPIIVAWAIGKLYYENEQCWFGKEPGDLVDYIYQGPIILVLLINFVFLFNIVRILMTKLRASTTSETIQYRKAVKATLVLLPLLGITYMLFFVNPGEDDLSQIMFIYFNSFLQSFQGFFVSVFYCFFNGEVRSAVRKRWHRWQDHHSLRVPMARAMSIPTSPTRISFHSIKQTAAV
T1 sequence (P24387 whole entry): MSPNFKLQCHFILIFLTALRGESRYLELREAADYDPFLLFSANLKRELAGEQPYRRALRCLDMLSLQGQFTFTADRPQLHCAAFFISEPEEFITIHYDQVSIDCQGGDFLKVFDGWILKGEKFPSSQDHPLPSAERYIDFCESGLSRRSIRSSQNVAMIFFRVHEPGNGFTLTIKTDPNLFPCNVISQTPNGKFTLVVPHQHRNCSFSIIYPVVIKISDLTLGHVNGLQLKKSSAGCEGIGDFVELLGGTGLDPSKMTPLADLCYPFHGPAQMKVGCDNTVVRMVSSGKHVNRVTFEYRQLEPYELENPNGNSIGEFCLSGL

[6] = target: T1, Corticotropin-releasing factor receptor 2/Corticotropin-releasing factor-binding protein; experiment: Dose Response confirmation of uHTS hits for small molecule antagonists of the CRF-binding protein and CRF-R2 receptor complex.; type: functional; details: read-out: IC50_Mean
[7] = blockers of CRF-binding protein–CRF-R2 complex – cell-based, uHTS hits, 384-well, dose response (AID 651639); type: functional, Homo sapiens; details: read-out: IC50_Mean
[8] = target: Peroxisome proliferator-activated receptor gamma/Nuclear receptor coactivator 2 (Homo sapiens, UniProt P37231); experiment: (§1) TR-FRET dose response biochemical High Throughput Screening assay for agonists of the steroid receptor coactivator 2 (SRC-2) recruitment by the peroxisome proliferator-activated receptor gamma (PPAR gamma): non-selective agonists. [Related pubchem assays: 1297, 1032 ]; type: functional
Sequence of Peroxisome proliferator-activated receptor gamma/Nuclear receptor coactivator 2 (P37231 whole entry): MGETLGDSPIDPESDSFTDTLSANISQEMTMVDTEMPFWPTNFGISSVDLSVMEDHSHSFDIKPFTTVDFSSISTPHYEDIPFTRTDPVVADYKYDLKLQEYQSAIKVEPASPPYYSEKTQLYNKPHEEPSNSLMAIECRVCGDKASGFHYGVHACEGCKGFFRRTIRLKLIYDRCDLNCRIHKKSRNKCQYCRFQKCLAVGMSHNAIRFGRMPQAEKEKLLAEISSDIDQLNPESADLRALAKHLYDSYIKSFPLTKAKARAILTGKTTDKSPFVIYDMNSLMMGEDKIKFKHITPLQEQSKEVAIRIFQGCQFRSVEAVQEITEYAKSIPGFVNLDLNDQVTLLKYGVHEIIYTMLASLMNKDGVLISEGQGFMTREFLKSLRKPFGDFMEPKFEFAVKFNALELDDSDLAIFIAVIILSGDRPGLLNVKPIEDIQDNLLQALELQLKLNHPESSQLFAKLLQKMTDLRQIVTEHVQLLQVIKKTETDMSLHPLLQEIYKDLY
Sequence of Peroxisome proliferator-activated receptor gamma/Nuclear receptor coactivator 2 (Q15596 whole entry, further chain): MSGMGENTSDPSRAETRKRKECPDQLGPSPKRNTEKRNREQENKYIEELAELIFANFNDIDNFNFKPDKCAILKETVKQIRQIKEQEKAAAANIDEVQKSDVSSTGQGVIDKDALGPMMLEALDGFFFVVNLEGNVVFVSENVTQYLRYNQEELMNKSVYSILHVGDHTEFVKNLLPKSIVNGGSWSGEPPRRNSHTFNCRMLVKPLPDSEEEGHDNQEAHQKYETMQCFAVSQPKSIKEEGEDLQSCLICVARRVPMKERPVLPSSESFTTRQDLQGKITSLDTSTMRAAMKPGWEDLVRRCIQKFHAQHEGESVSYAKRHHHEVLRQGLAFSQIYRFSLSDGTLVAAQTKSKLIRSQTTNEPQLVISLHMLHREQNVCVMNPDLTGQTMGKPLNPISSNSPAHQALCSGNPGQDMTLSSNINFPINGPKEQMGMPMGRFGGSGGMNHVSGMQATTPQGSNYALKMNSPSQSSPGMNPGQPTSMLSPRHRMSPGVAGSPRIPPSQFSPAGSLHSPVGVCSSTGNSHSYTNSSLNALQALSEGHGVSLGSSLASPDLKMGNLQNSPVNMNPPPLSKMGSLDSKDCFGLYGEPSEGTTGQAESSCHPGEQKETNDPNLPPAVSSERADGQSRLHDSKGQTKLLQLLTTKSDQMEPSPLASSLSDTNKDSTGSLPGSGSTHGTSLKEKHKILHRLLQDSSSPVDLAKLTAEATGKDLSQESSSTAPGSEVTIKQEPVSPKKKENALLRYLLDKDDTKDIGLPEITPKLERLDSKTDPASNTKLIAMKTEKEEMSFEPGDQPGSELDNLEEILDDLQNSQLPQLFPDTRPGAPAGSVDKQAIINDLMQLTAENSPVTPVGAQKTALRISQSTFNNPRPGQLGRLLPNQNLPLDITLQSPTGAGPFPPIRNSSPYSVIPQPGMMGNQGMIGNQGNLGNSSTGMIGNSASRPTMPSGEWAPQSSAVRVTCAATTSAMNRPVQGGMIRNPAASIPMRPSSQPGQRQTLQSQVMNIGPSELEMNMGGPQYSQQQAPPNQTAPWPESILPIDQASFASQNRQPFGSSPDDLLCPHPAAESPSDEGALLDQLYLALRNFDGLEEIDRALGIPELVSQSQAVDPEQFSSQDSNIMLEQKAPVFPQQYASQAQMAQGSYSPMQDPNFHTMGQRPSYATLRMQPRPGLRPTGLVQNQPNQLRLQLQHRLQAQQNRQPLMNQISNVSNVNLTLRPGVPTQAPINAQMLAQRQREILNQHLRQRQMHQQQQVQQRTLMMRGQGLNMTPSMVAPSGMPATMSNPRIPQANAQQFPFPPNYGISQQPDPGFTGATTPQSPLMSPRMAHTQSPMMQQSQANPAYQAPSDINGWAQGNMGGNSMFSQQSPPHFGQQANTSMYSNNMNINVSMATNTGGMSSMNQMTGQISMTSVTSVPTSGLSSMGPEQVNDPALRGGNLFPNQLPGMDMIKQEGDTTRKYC

[9] = target: Peroxisome proliferator-activated receptor gamma/Nuclear receptor coactivator 1 (Homo sapiens, UniProt P37231); experiment: as §1, with “1 (SRC-1)” for “2 (SRC-2)”, “assays (depositor defined):AID1300, AID1808, AID504735, AID631]” for “assays: 1297, 1032 ]”; type: protein assay
[10] = target: Peroxisome proliferator-activated receptor gamma/Nuclear receptor coactivator 3 (Homo sapiens, UniProt P37231); experiment: as §1, with “3 (SRC-3)” for “2 (SRC-2)”, “1301 (Confirmation screen.), 1048 (Primary screen.)]” for “1297, 1032 ]”; type: functional
Sequence of Peroxisome proliferator-activated receptor gamma/Nuclear receptor coactivator 3 (P37231 whole entry): as the sequence (P37231 whole entry) above
Sequence of Peroxisome proliferator-activated receptor gamma/Nuclear receptor coactivator 3 (Q9Y6Q9 whole entry, further chain): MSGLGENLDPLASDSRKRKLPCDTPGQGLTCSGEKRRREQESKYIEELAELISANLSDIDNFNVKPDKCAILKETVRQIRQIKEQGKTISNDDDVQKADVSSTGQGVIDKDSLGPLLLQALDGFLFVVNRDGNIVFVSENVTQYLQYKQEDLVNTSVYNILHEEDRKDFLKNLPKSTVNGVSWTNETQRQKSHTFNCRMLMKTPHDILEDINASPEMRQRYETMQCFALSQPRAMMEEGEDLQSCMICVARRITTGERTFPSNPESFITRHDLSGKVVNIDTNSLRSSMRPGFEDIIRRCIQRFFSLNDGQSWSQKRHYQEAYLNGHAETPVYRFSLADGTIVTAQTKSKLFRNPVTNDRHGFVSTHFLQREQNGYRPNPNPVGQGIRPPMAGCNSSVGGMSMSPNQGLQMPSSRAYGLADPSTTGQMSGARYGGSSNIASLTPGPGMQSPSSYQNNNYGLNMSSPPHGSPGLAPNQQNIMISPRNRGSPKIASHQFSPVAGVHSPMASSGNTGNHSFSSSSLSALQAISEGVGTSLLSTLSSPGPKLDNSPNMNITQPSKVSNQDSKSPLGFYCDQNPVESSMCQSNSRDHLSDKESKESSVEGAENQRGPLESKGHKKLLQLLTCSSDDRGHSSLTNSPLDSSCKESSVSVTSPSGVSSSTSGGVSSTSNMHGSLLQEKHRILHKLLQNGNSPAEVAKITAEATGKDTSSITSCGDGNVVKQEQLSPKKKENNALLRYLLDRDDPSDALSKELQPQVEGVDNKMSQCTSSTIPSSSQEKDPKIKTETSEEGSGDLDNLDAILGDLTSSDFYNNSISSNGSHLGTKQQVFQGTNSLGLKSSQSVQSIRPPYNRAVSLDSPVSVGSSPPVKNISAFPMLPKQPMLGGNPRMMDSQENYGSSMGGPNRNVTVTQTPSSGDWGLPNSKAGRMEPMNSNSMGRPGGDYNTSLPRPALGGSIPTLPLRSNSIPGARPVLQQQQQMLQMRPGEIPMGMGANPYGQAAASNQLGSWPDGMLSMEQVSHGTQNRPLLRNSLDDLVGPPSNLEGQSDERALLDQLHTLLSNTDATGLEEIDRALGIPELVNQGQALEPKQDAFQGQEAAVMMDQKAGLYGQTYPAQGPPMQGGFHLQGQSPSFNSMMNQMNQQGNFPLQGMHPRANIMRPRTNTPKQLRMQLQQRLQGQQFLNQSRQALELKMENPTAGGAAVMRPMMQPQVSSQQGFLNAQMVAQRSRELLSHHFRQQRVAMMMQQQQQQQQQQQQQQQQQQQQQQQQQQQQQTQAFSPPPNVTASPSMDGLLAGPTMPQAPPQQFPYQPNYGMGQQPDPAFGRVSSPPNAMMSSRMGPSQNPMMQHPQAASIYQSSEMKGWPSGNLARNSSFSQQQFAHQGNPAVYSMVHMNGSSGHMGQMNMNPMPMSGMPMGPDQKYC

[11] = tested on: Streptococcus; experiment: GAS UMAA2166 growth inhibition – luminescence, BacTiterGlo, counter-screen for streptokinase expression inhibitor project, dose response (AID 1915); type: functional, organism-based;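 also: potency for reduction of bacterial viability or growth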
[12] = tested on: Streptococcus sp. 'group A'; experiment: Streptococcus pyogenes SK(-)GAS viability under kanamycin – luminescence, BacTiterGlo, confirmation, counter-screen for streptokinase expression inhibitor project, dose response (AID 1900); type: functional, organism-based
[13] = HIV-1 AD8 envelope cell-cell fusion blockers – cherry-pick, dose response (AID 652062); type: functional, cell-based;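 also: luciferase signal from cell-cell fusion driven by HIV-1 clade B AD8 Env; potency is for inhibitors of fusion seen as a drop in luminescence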
[14] = blockers of HIV-1 envelope-mediated cell-cell fusion – cherry-pick, dose response (AID 652057); type: functional, cell-based
[15] = blockers of HIV-1 ZM109 envelope-driven cell-cell fusion – HeLa effector, CEM target cells, luciferase, cherry-pick, dose response (AID 652058); type: functional, cell-based;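 also: luciferase signal from HIV-1 Env mediated cell-cell fusion of effector and target cells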
[16] = off-target signal loss in HeLa-CEM21 co-culture – HeLa F-luc CTL cells, cherry-picked, counter-screen for HIV-1 Env fusion inhibitor project, dose response (AID 652040); type: functional, cell-based;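 also: potency for signal decrease marking cytotoxic or nonspecific inhibition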
[17] = target: Heat shock protein HSP 90-alpha (Homo sapiens, UniProt P07900); type: functional, organism-based
[18] = target: T2, Tyrosyl-DNA phosphodiesterase 2 (Homo sapiens, UniProt O95551); experiment: potency against TDP2 phosphodiesterase activity – biochemical, epi absorbance, IC50, dose response (AID 743297)
T2 sequence (O95551 whole entry): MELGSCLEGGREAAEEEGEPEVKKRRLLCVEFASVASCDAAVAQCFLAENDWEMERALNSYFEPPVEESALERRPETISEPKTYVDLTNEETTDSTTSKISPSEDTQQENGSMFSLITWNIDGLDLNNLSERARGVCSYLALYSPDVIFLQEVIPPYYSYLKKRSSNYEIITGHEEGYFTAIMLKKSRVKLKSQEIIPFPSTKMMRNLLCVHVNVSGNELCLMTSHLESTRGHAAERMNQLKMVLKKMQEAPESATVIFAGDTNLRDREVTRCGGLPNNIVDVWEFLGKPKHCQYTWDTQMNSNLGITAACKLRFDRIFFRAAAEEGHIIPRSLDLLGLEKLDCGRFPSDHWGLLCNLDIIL

[19] = P. falciparum Dd2 growth inhibitors, dose response, SYBR Green, cherry-picked samples (AID 1159567); type: functional, cell-based
[20] = toxicity to human hepatoma HepG2 cells – cell-based, cherry-picked samples, cytotoxicity control, dose response (AID 1159577); type: functional
[21] = viability loss in THP-1 monocytes – THP-1 cells, cytotoxicity control for Vif-APOBEC3G degradation inhibitor project, dose response (AID 1117359); type: functional; details: THP-1
[22] = tested on: Vero; experiment: viability of Vero cells under compound – cytotoxicity control for flavivirus capping enzyme inhibitors (AID 588742); type: functional; details: Chlorocebus sabaeus

Sequence of Paired box protein Pax-8 (Q06710 whole entry): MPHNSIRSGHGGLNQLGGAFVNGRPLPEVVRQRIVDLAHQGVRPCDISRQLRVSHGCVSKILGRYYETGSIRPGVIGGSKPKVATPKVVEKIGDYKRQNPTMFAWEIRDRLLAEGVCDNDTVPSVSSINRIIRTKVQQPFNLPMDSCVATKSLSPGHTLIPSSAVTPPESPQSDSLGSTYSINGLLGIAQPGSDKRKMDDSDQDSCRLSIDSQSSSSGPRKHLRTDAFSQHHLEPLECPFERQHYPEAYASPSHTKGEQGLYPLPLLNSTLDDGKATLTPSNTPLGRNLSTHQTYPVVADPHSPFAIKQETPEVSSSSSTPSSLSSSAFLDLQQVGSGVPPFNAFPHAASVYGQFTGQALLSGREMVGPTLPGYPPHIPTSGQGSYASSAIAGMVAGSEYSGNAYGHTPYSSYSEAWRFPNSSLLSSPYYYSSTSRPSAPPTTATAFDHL

Compound: CCOc1ccc(C(=O)O/N=C(\N)c2ccccn2)cc1
AC50 [1]: 7.43 µM (active)
AC50 [2]: 34.9 µM (active)
EC50 [3]: 0.847 µM (active)
EC50 [4]: 0.499 µM (active)

EC50 [5]: > 53 µM (inactive)
IC50 [6]: 36.7 µM (active)
IC50 [7]: 11 µM (active)
Compound: CCn1nc(C)c(NC(=O)Nc2cccc(Cl)c2Cl)c1C

EC50 [8]: 10.6 µM (not active)
EC50 [9]: 9.45 µM (active)
EC50 [10]: 80.4 µM (not active)
Compound: COc1ccccc1C1CC(c2ccccc2)=NN1C(S)=Nc1ccccc1 (centres undefined)

Compound: Cc1cc(O)nc(SCC(=O)Nc2ccc(Br)cc2)c1C#N
EC50 [11]: 20.1 µM (active)
IC50 [7]: 15.4 µM (active)
EC50 [12]: 6.89 µM (active)

Compound: COc1ccc(N(CC(=O)NCCSCc2ccc(Cl)cc2)S(C)(=O)=O)cc1Cl
AC50 [13]: 6.47 µM (active)
AC50 [14]: 2.9 µM (active)
AC50 [15]: 4.11 µM (active)
AC50 [16]: 5.7 µM (active)

EC50 [5]: > 53 µM (inactive)
AC50 [17]: 14.9 µM (active)
IC50 [6]: 6.45 µM (active)
IC50 [7]: 15 µM (active)
Compound: Cc1ccc(S(=O)(=O)Nc2ccc3cc([N+](=O)[O-])ccc3c2[N+](=O)[O-])cc1

IC50 [18]: 13.6 µM (inactive)
Compound: Fc1ccc(Nc2cncc(-c3ccsc3)c2)cc1Cl

Compound: CC(=O)C1=C(C)N(Cc2ccc(Br)cc2)C(=S)NC1c1cccc(Cl)c1 (centres undefined)
AC50 [13]: 28.4 µM (active)
AC50 [14]: 4.14 µM (active)
AC50 [15]: 6.83 µM (active)
AC50 [16]: 10 µM (active)

Compound: C[C@H](CO)N1C[C@H](C)[C@H](CN(C)S(=O)(=O)c2ccccc2)Oc2ccc(NC(=O)Nc3ccccc3)cc2CC1=O
AC50 [13]: 3 µM (active)
AC50 [14]: < 0.26 µM (active)
AC50 [15]: 0.414 µM (active)

Compound: N#C[C@@H]1[C@@H](c2ccc(C#Cc3ccc(F)cc3)cc2)[C@H](CO)N1C(=O)C1CCC1
AC50 [19]: 6.15 µM (active)
AC50 [20]: > 39 µM (inactive)

Compound: Nc1nc(Sc2ccc([N+](=O)[O-])c3nonc23)c2nc[nH]c2n1
CC50 [21]: 0.68 µM (active)
AC50 [2]: 1.17 µM (active)
CC50 [22]: 5.9 µM (active)

Source: ChEMBL document CHEMBL1201862, “PubChem BioAssay data set” (2004)
